Measurements: ChEMBL document CHEMBL1127876, “Potent imidazole angiotensinII antagonists: acyl sulfonamides and acyl sulfamides as tetrazole replacements” (Bioorg Med Chem Lett, 1994)

How the values were obtained:
[1] = target: T1, Type-2 angiotensin II receptor (Rattus norvegicus, UniProt P35351); test: In vitro inhibitory activity against angiotensin II (AT2) receptor to displace 125I-Sar,Ile8-AII in rat midbrain
T1 sequence (P35351 whole entry): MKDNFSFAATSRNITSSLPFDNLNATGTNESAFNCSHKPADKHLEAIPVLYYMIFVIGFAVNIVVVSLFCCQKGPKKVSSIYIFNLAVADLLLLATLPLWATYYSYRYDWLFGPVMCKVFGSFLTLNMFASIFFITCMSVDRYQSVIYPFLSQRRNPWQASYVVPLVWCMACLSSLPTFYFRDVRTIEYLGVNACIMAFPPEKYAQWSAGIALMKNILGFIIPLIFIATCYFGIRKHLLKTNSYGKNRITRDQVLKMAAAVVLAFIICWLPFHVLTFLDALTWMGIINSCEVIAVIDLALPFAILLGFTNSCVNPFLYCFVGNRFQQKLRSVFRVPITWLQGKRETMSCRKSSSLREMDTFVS

[2] = target: T2, Type-1 angiotensin II receptor (Oryctolagus cuniculus, UniProt P34976); test: In vitro inhibitory activity against Angiotensin II receptor, type 1 to displace 125I-Sar,Ile8-AII in rabbit aorta; assay type: tissue-based
T2 sequence (P34976 whole entry): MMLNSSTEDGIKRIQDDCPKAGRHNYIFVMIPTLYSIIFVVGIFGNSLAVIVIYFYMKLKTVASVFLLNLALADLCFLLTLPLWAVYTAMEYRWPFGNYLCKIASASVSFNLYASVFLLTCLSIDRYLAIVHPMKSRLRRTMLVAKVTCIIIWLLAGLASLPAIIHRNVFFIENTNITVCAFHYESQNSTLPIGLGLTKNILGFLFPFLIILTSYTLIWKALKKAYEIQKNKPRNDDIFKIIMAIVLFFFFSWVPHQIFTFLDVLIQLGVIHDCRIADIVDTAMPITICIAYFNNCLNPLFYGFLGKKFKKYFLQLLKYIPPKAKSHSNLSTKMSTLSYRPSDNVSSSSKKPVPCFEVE

Compound | IC50 [1] | IC50 [2]
CCCc1nc(CC)c(C(=O)OC)n1Cc1ccc(-c2ccccc2S(=O)(=O)NC(=O)c2ccccc2)cc1 | 1000 nM | 0.5 nM
CCCCc1ncc(C(=O)O)n1Cc1ccc(-c2ccccc2S(=O)(=O)NC(=O)c2ccccc2)cc1 | 4500 nM | 6.2 nM
CCCCc1nc(Cl)c(C(=O)OC)n1Cc1ccc(-c2ccccc2-c2nn[nH]n2)cc1 | > 50000 nM | 13 nM
CCCCCCCC(=O)NS(=O)(=O)Nc1ccccc1-c1ccc(Cn2c(C(=O)OC)cnc2CCCC)cc1 | 500 nM | 1.9 nM
CCCc1nc(CC)c(C(=O)O)n1Cc1ccc(-c2ccccc2S(=O)(=O)NC(=O)C2CC2)cc1 | > 10000 nM | 4.3 nM
CCCCc1ncc(C(=O)OC)n1Cc1ccc(-c2ccccc2-c2nn[nH]n2)cc1 | > 50000 nM | 15 nM
CCCCc1ncc(C(=O)OC)n1Cc1ccc(-c2ccccc2NS(=O)(=O)NC(=O)C2CC2)cc1 | 10000 nM | 32 nM
CCCCc1nc(Cl)c(C(=O)OC)n1Cc1ccc(-c2ccccc2S(=O)(=O)NC(=O)c2ccccc2)cc1 | 5300 nM | 8.8 nM
CCCc1nc(CC)c(C=O)n1Cc1ccc(-c2ccccc2S(=O)(=O)NC(=O)c2ccccc2)cc1 | – | 2.4 nM
CCCCc1ncc(C(=O)O)n1Cc1ccc(-c2ccccc2NS(=O)(=O)NC(=O)c2ccccc2)cc1 | > 10000 nM | 6 nM
CCCc1nc(CC)c(C(=O)OC)n1Cc1ccc(-c2ccccc2S(=O)(=O)NC(=O)C2CC2)cc1 | 2100 nM | 2.6 nM
CCCc1nc(CC)c(C=O)n1Cc1ccc(-c2ccccc2S(=O)(=O)NC(=O)C2CC2)cc1 | 2000 nM | 12 nM
CCCCc1ncc(C(=O)OC)n1Cc1ccc(-c2ccccc2S(=O)(=O)NC(=O)c2ccccc2)cc1 | > 1000 nM | 21 nM
CCCCc1nc(Cl)c(C(=O)O)n1Cc1ccc(-c2ccccc2S(=O)(=O)NC(=O)c2ccccc2)cc1 | 9500 nM | 2 nM
CCCCCCCC(=O)NS(=O)(=O)Nc1ccccc1-c1ccc(Cn2c(C(=O)O)cnc2CCCC)cc1 | 2300 nM | 0.2 nM
CCCCc1ncc(C(=O)O)n1Cc1ccc(-c2ccccc2NS(=O)(=O)NC(=O)C2CC2)cc1 | > 10000 nM | 7.4 nM
CCCc1nc(CC)c(C(=O)O)n1Cc1ccc(-c2ccccc2-c2nnn[nH]2)cc1 | > 1000 nM | 6 nM
CCCCc1ncc(C(=O)OC)n1Cc1ccc(-c2ccccc2NS(=O)(=O)NC(=O)c2ccccc2)cc1 | 1800 nM | 20 nM
CCCc1nc(CC)c(C(=O)O)n1Cc1ccc(-c2ccccc2S(=O)(=O)NC(=O)c2ccccc2)cc1 | 7000 nM | 1.7 nM
CCCCc1ncc(C(=O)O)n1Cc1ccc(-c2ccccc2-c2nn[nH]n2)cc1 | > 50000 nM | 2.9 nM
CCCc1nc(CC)c(C=O)n1Cc1ccc(-c2ccccc2-c2nnn[nH]2)cc1 | > 30000 nM | 8 nM
CCCCc1ncc(C(=O)OC)n1Cc1ccc(-c2ccccc2S(=O)(=O)NC(=O)C2CC2)cc1 | 8000 nM | 39 nM
CCCCc1ncc(C(=O)O)n1Cc1ccc(-c2ccccc2S(=O)(=O)NC(=O)C2CC2)cc1 | 5800 nM | 5.8 nM
